“Also recorded” adds a separate entry of the source.
Assays:
[1] = test system: mutant BDNF gene-knockin mice; experiment: Open field (circular field) quantity of activity after etizolam, mutant mice; format: in vivo, mouse; settings: mutant mice aged 4 to 5 weeks; etizolam solution 0.5 mg/kg intraperitoneally; measured from 5 minutes after administration; p<0.001
Method: (§1) The abnormal behavior in the mutant BDNF gene-knockin mouse was quantitatively analyzed. An emotional change of the mouse is reflected to the quantity of activity and a behavioral pattern of the mouse when the mouse is placed in a novel environment. The mouse was placed in the novel environment which was an inexperienced circular field (a diameter of 50 cm and a wall height of 40 cm in the field) for 25 to 30 minutes, and the quantity of activity in the meantime was compared between the wild type homozygous mice (wild) and the knockin homozygous mice (mutants). The mouse was placed 30 minutes before the experiment in a room in which the circular field had been disposed, and placed calmly in the circular field using a paper box. The activity of the mouse in the circular field was measured by recording using DV-Track video tracking system supplied from Muromachi Kikai.
(§2) Etizolam is a short term action type GABA, a neurotransmission accelerator (reference: Elder C. A. et al.: Drug Metab. Dispos., vol. 23, 776, 1995). […] A protocol was comprising (I) measuring the total quantity of activity in the mouse for 30 minutes after being placed in the open field, (II) intraperitoneally administering PBS or the etizolam solution (0.5 mg/kg) and (III) returning the mouse in the open field after 5 minutes and measuring the quantity of activity for 30 minutes in the mouse. […]

wild type mice = experiment: Open field (circular field) quantity of activity after etizolam, wild type mice; format: in vivo, mouse; settings: wild type mice aged 4 to 5 weeks; etizolam solution 0.5 mg/kg intraperitoneally; measured from 5 minutes after administration; p<0.05
Method: as §1, §2

cholinergic nerve cells = experiment: Harmful action of non-cleavable proBDNF derivative on cholinergic nerve cells; format: cell-based
[2] = test system: cerebellar granular nerve cells; experiment: Harmful action of non-cleavable proBDNF derivative on cerebellar granular nerve cells; format: cell-based

Molecule | effect on abnormal behavior (total behavioral distance / quantity of activity for 30 minutes in the open field) [1] | effect on quantity of activity for 30 minutes in the open field (wild type mice) | action on fibers in cholinergic nerve cells (cholinergic nerve cells) | action on cell death of cerebellar granular nerve cells [2]
CCc1cc2c(s1)-n1c(C)nnc1CN=C2c1ccccc1Cl [etizolam] | inhibitory effect; also recorded: remarkably inhibited | certainly effective |  | 
BDNF-ML: non-cleavable human proBDNF derivative protein with R125M and R127L, SEQ ID NO:2 (protein, Non-cleavable human proBDNF mutant) MTILFLTMVISYFGCMKAAPMKEANIRGQGGLAYPGVRTHGTLESVNGPKAGSRGLTSLADTFEHVIEELLDEDQKVRPNEENNKDADLYTSRVMLSSQVPLEPPLLFLLEEYKNYLDAANMSMMVLRHSDPARRGELSVCDSISEWVTAADKKTAVDMSGGTVTVLEKVPVSKGQLKQYFYETKCNPMGYTKEGCRGIDKRHWNSQCRTTQSYVRALTMDSKKRIGWRFIRIDTSCVCTLTIKRGR |  |  | facilitation of dropout of fibers | facilitation of cell death
